In ChEMBL document CHEMBL6078720, “Design and synthesis of novel 3,7-dihydro-1H-purine-2,6-diones as DPP-4 inhibitors: An in silico, in vitro and in vivo approach” (Eur J Med Chem, 2025) one finds Activity, Flu intensity and IC50 data, which are given here for 17 compounds.

What is called IC50 is the concentration needed to halve the response being measured.

Data set [1] concerns HepG2. The experiment in a line: Cytotoxicity against human HepG2 cells assessed as cell viability up to 100 uM incubated for 24 hrs by MTT assay. Format: toxicity, cell-based. The settings on record: hepg2, 24 h.
The subject of data set [2] is Mus musculus. The experiment in a line: Anti-diabetic activity against STZ-NA induced diabetic Swiss Albino mouse model assessed as decrease in blood glucose level at 5 mg/kg, po measured up to 240 mins by Oral glucose tolerance test relative to control. The class given is functional, organism-based.
In data set [3] the test system is Mus musculus. The experiment in a line: Anti-diabetic activity against STZ-NA induced diabetic Swiss Albino mouse model assessed as decrease in blood glucose level at 10 mg/kg, po measured up to 240 mins by Oral glucose tolerance test relative to control. The class given is functional, organism-based.
A short description of data set [4]: Toxicity in STZ-NA induced diabetic Swiss Albino mouse model assessed as decrease in body weight at 5 mg/kg, po measured after 21 days. The class given is organism-based. The following applies: in vivo, 504 h, time 21 day.
The nature of data set [5]: Toxicity in STZ-NA induced diabetic Swiss Albino mouse model assessed as decrease in body weight at 10 mg/kg, po measured after 21 days. The settings on record: in vivo, 504 h, time 21 day. Format: organism-based.
In data set [6] the test system is Mus musculus. The experiment in a line: Effect on STZ-NA induced histological abnormalities in diabetic mouse model assessed as change in appearance of liver at 10 mg/kg, po after 21 days by hematoxylin and eosin staining based microscopic assay. The class given is functional, organism-based. The following applies: time 21.0 day.
For data set [7], the system named is Mus musculus. The experiment in a line: Effect on STZ-NA induced histological abnormalities in diabetic mouse model assessed as change in hepatocyte density at 10 mg/kg, po after 21 days by hematoxylin and eosin staining based microscopic assay. The class given is functional, organism-based. The following applies: time 21.0 day.
Data set [8] relates to Mus musculus. The experiment in a line: Effect on STZ-NA induced histological abnormalities in diabetic mouse model assessed as change in hepatocyte structure at 10 mg/kg, po after 21 days by hematoxylin and eosin staining based microscopic assay. The settings on record: time 21.0 day. The class given is functional, organism-based.
For data set [9], the system named is Mus musculus. The experiment in a line: Effect on STZ-NA induced histological abnormalities in diabetic mouse model assessed as change in hepatocyte size at 10 mg/kg, po after 21 days by hematoxylin and eosin staining based microscopic assay. Format: functional, organism-based. The settings on record: time 21.0 day.
In data set [10] the test system is Mus musculus. The experiment in a line: Reversal of STZ-NA induced histological abnormalities in diabetic mouse model assessed as hepatic portal vein at 10 mg/kg, po after 21 days by hematoxylin and eosin staining based microscopic assay. The class given is functional, organism-based. The following applies: time 21.0 day.
Data set [11] concerns Mus musculus. The experiment in a line: Reversal of STZ-NA induced histological abnormalities in diabetic mouse model assessed as enlarged extracellular gaps at 10 mg/kg, po after 21 days by hematoxylin and eosin staining based microscopic assay. Format: functional, organism-based. The settings on record: time 21.0 day.
Data set [12] relates to Mus musculus. The experiment in a line: Reversal of STZ-NA induced histological abnormalities in diabetic mouse model assessed as vacuoles at 10 mg/kg, po after 21 days by hematoxylin and eosin staining based microscopic assay. The following applies: time 21.0 day. Format: functional, organism-based.
Data set [13] has as its system Mus musculus. The experiment in a line: Reversal of STZ-NA induced histological abnormalities in diabetic mouse model assessed as vacuolation and mild congestion at 10 mg/kg, po after 21 days by hematoxylin and eosin staining based microscopic assay. The class given is functional, organism-based. The following applies: time 21.0 day.
Data set [14] deals with Mus musculus. The experiment in a line: Reversal of STZ-NA induced increase in DPP-4 expression in po dosed diabetic mouse model assessed as decrease in DPP-4 expression in cellular region after 21 days by Immunohistochemical analysis. The following applies: dose 5-10 mg/kg, time 21.0 day. The class given is functional, organism-based.
For data set [15], the system named is Mus musculus. The experiment in a line: Reversal of STZ-NA induced increase in DPP-4 mRNA production in po dosed diabetic mouse model assessed as decrease in DPP-4 mRNA expression in liver tissue by measuring mean fluorescence intensity after 21 days by RT-qPCR analysis. Format: functional, organism-based. The following applies: dose 5-10 mg/kg, time 21.0 day. In general terms: Quantitative PCR measures a nucleic acid by following its amplification.

Data set [16] deals with HepG2. The settings on record: dose 15 nM; time 24 hrs.
Data set [17] deals with HepG2. The following applies: dose 15 nM; time 24 hrs. This is another data set of the same source.
The species entered for data set [18] is Mus musculus. The settings on record: dose 5 mg/kg; route po; time 21 day.
Description: Reversal of STZ-NA induced total ROS formation in diabetic mouse model assessed as decrease in ROS production by measuring mean fluorescence intensity at 5 mg/kg, po after 21 days (Rvb = 287228 No_unit)
For data set [19], the species on record is Mus musculus. The settings on record: dose 10 mg/kg; route po; time 21 day.
Description: Reversal of STZ-NA induced total ROS formation in diabetic mouse model assessed as decrease in ROS production by measuring mean fluorescence intensity at 10 mg/kg, po after 21 days (Rvb = 287228 No_unit)
Data set [20] is filed under the species Mus musculus. The settings on record: dose 5 mg/kg; route po; time 21 day. The source holds these as a separate data set.
The species entered for data set [21] is Mus musculus. The settings on record: dose 10 mg/kg; route po; time 21 day. This is another data set of the same source.
The species entered for data set [22] is Mus musculus. The settings on record: dose 5 mg/kg; route po; time 21 day. This is another data set of the same source.
Description: Reversal of STZ-NA induced increase in DPP-4 production in diabetic mouse model assessed as decrease in DPP-4 expression in liver tissue by measuring mean fluorescence intensity at 5 mg/kg, po after 21 days by flow cytometry (Rvb = 322245 No_unit)
Data set [23] is filed under the species Mus musculus. The settings on record: dose 10 mg/kg; route po; time 21 day. This is another data set of the same source.
Description: Reversal of STZ-NA induced increase in DPP-4 production in diabetic mouse model assessed as decrease in DPP-4 expression in liver tissue by measuring mean fluorescence intensity at 10 mg/kg, po after 21 days by flow cytometry (Rvb = 322245 No_unit)
Data set [24] has as its target Dipeptidyl peptidase 4 (Homo sapiens, UniProt P27487). The experiment in a line: Inhibition of human recombinant DPP-4 using Gly-Pro-AMC as fluorogenic substrate by measuring fluorescence intensity incubated for 30 mins.
Data set [25] relates to Mus musculus. The experiment in a line: Acute anti-hyperglycemic activity against STZ-NA induced diabetic Swiss Albino mouse model assessed as reduction in blood glucose level at 10 mg/kg, po measured up to 24 hrs. The class given is functional, organism-based.
The test system of data set [26] is Mus musculus. The experiment in a line: Chronic anti-hyperglycemic activity against STZ-NA induced diabetic Swiss Albino mouse model assessed as reduction in blood glucose level at 10 mg/kg, po measured up to 21 days. The class given is functional, organism-based. The settings on record: time <= 21.0 day.
Data set [27] deals with Mus musculus. The experiment in a line: Acute anti-hyperglycemic activity against STZ-NA induced diabetic Swiss Albino mouse model assessed as reduction in blood glucose level at 5 mg/kg, po measured up to 24 hrs. The class given is functional, organism-based.
The subject of data set [28] is Mus musculus. The experiment in a line: Chronic anti-hyperglycemic activity against STZ-NA induced diabetic Swiss Albino mouse model assessed as reduction in blood glucose level at 5 mg/kg, po measured up to 21 days. The settings on record: time <= 21.0 day. The class given is functional, organism-based.

Molecules are shown by their SMILES. The source made the active and inactive calls. The calls are words filed in the database; no cut-off is given here.

Sequence of Dipeptidyl peptidase 4 (P27487 whole entry): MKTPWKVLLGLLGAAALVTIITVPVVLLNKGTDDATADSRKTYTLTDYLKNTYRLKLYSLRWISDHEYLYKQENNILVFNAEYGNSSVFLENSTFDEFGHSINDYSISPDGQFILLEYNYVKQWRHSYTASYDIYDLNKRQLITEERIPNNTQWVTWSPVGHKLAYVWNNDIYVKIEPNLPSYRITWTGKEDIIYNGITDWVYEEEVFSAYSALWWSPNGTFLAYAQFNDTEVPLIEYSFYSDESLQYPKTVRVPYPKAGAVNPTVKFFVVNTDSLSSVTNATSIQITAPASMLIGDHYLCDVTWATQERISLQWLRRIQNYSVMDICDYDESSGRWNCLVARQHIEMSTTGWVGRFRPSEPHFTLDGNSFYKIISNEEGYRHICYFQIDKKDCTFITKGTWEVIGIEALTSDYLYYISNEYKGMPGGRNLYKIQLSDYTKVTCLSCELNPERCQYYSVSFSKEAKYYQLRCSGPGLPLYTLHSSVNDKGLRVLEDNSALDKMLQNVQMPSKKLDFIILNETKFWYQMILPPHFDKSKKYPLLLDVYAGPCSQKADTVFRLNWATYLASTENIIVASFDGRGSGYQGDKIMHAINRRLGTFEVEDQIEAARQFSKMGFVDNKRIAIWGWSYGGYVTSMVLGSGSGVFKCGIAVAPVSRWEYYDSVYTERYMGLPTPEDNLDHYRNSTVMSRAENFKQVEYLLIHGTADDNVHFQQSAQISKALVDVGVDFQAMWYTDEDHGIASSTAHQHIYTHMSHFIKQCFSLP

As to `Cn1c(=O)c2c(nc(Oc3ccc([N+](=O)[O-])cc3)n2CC(=O)c2ccc(-c3ccccc3)cc2)n(C)c1=O`, in data set [1], the Activity entry is “Non-toxic”.
With `C=CCn1c(Oc2ccc([N+](=O)[O-])cc2)nc2c1c(=O)n(Cc1nc(C)c3ccccc3n1)c(=O)n2C`, the Activity entry in data set [1] was “Non-toxic”; in data set [4] it was “Toxic”; in [5], “Toxic”; in data set [10], “Active; Hepatic Portal Vein Looked Similar To Normal Group”; in data set [14], “Dose-dependent-effect”; in data set [15], “Dose-dependent-effect”. Further, the outcome in [2], in data set [3], in data set [11] and in data set [12] was Active. The outcome in data set [6], in data set [7], in data set [8], in data set [9] and in data set [13] was inactive. Also, the Flu intensity is reported as 82988 in data set [16]; 3565 in [17]; 165558 in data set [18]; 138121 in [19]; 36602 in data set [20]; 9136 in data set [21]. Moreover, the Flu intensity in data set [22] came out at 248748; in data set [23], 154821.
For the compound `Cn1c(=O)c2c(nc(Oc3ccc([N+](=O)[O-])cc3)n2Cc2ccc(Cl)cc2Cl)n(C)c1=O`, in [1], the Activity entry is on record as “Non-toxic”.
In the case of `Cn1c(=O)c2c(nc(N3CCOCC3)n2Cc2ccccc2)n(C)c1=O`, the Activity result in [1] is “Non-toxic”; in [25] it was “Active; Results Comparable To Linagliptin”; in [26], “Active; Results Comparable To Linagliptin”; in data set [4] it was “Toxic”; in data set [5], “Toxic”; in [10], “Active; Hepatic Portal Vein Looked Similar To Normal Group”. The Activity entry in data set [14] and in [15] was “Dose-dependent-effect” in each case. For the same compound, the IC50 in data set [24] was 15.7 nM. The result in [2], in [3], in data set [11] and in data set [12] was Active. Also, the outcome in data set [6], in data set [7], in data set [8], in data set [9] and in data set [13] was inactive. Besides, the Flu intensity in data set [16] is on record as 6930; in data set [17] it was 1460; in data set [18] it was 82220; in [19], 49658; in data set [20] it was 11036; in [21], 4811. In addition, the Flu intensity in [22] is 240545; in [23], 89888.
For `Cn1c(=O)[nH]c(=O)c2c1nc(N1CCOCC1)n2Cc1ccc(Cl)cc1`, in data set [1], the Activity entry was “Non-toxic”.
On the same count and under the same terms, then `Cc1ccc(Cn2cnc3c2c(=O)n(Cc2ccc(C#N)cc2)c(=O)n3C)cc1`, with “Non-toxic”.
As for `C=CCn1c(=O)c2c(ncn2Cc2ccc(C#N)cc2)n(Cc2ccccc2)c1=O`, in data set [1], the Activity entry is “Non-toxic”.
With `Cn1c(=O)c2c(nc(N3CCOCC3)n2Cc2ccc(F)cc2)n(C)c1=O`, the Activity result in data set [1] is “Non-toxic”.
For `COc1cccc(Cn2c(N3CCOCC3)nc3c2c(=O)n(C)c(=O)n3C)c1`, the Activity result in [1] is reported as “Non-toxic”. Also, in data set [24], the IC50 amounted to 27.9 nM.
With `Cn1c(=O)c2c(nc(N3CCOCC3)n2Cc2cccc([N+](=O)[O-])c2)n(C)c1=O`, in [1], the Activity entry is reported as “Non-toxic”.
Turning to `Cn1c(=O)c2c(nc(Oc3ccc(Br)cc3)n2CC(=O)c2ccc(-c3ccccc3)cc2)n(C)c1=O`, the Activity entry in [1] is recorded as “Non-toxic”.
Consider `Cn1c(=O)[nH]c(=O)c2c1nc(Oc1ccc([N+](=O)[O-])cc1)n2Cc1ccc(C#N)cc1`, for which the Activity result in data set [1] was “Non-toxic”.
In the case of `Cn1c(=O)c2c(nc(Oc3ccc(C=O)cc3)n2Cc2ccc(F)cc2)n(C)c1=O`, in [1], the Activity entry is on record as “Non-toxic”.
As to `CC#CCn1c(N2CCC[C@@H](N)C2)nc2c1c(=O)n(Cc1nc(C)c3ccccc3n1)c(=O)n2C` [LINAGLIPTIN], the outcome in data set [27], in data set [28] and in data set [2] was Active. Further, in data set [4], the Activity result is listed as “Toxic”. In addition, the Flu intensity turned out to be 3493 in data set [16]; 1212 in data set [17]; 15930 in data set [18]; 2520 in data set [20]; 20334 in data set [22].
For the compound `Cn1c(=O)c2c(nc(Oc3ccc(C=O)cc3)n2Cc2ccc(Cl)cc2Cl)n(C)c1=O`, the Activity result in data set [1] was “Non-toxic”.
`Cn1c(=O)c2c(nc(Oc3ccc4ccc(=O)oc4c3)n2CC(=O)c2ccc(-c3ccccc3)cc2)n(C)c1=O`: in [1], the Activity entry is “Non-toxic”.
As for `Cn1c(=O)n(Cc2ccccc2)c(=O)c2c1nc(Oc1ccc([N+](=O)[O-])cc1)n2Cc1ccc(C#N)cc1`, the Activity result in data set [1] was “Non-toxic”.
